Assay results reported in patent US12492173B2, “Herbicidal substituted N-tetrazolyl aryl carboxamides” (Bayer Aktiengesellschaft, priority 2019, dated 2025).

Legend:
Format in all cases: in vivo
Viola tricolor = experiment: Post-emergence herbicidal action, VIOTR; parameters: key: % herbicidal action vs untreated; 100 = plants died, 0 = like control
In short: (§1)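 One-leaf-stage weeds, raised from seed in greenhouse sandy loam, received a single foliar spray of compound as wettable powder or emulsion concentrate with 0.2% wetting agent added. Growth continued under optimal conditions for about 3 weeks before percent damage was scored by eye against controls.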

Stellaria media [1] = experiment: Post-emergence herbicidal action, STEME; parameters: key: % herbicidal action vs untreated; 100 = plants died, 0 = like control
In short: as §1

Stellaria media [2] = experiment: Pre-emergence herbicidal action, STEME; details: dosage 320 g/ha; for herbicidal activity STEME: scored visually after 3 weeks vs untreated controls (100% = plants have died)
In short: (§2)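 Sown pots (sandy loam) sprayed pre-emergence → greenhouse → visual rating at 3 weeks; % activity vs untreated control, 100% = dead.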

Abutilon theophrasti = experiment: Pre-emergence herbicidal action, ABUTH; details: dosage 320 g/ha; for herbicidal activity ABUTH: scored visually after 3 weeks vs untreated controls (100% = plants have died)
In short: as §2

Veronica persica = experiment: Pre-emergence herbicidal action, VERPE; details: dosage 320 g/ha; for herbicidal activity VERPE: scored visually after 3 weeks vs untreated controls (100% = plants have died)
In short: as §2

| Compound | herbicidal action VIOTR (Viola tricolor; Dosage 80 g/ha) | herbicidal action STEME (Stellaria media [1]; Dosage 80 g/ha) | herbicidal action STEME (Stellaria media [2]) | herbicidal action ABUTH (Abutilon theophrasti) | herbicidal action VERPE (Veronica persica) | herbicidal action VIOTR (Viola tricolor; post-emergence, dosage 80 g/ha) | herbicidal action STEME (Stellaria media [1]; post-emergence, dosage 80 g/ha) | herbicidal activity STEME (Stellaria media [2]) | herbicidal activity ABUTH (Abutilon theophrasti) | herbicidal activity VERPE (Veronica persica) |
| --- | --- | --- | --- | --- | --- | --- | --- | --- | --- | --- |
| CCCn1nnnc1NC(=O)c1ccc(S(C)(=O)=O)c(CSC)c1C [Example 3-37] | 100 | 100 | 90% | 80% | 100% | – | – | – | – | – |
| CCCn1nnnc1NC(=O)c1ccc(C(F)(F)F)c(CSC)c1SC [Example 3-161] | 100 | 100 | 100% | 100% | 100% | – | – | – | – | – |
| CCCn1nnnc1NC(=O)c1ccc(C(F)(F)F)c(C[S+](C)[O-])c1SC (centres unmarked) [Example 3-162] | – | – | – | – | – | 100% | 100% | 100% | 100% | 100% |
| CCCn1nnnc1NC(=O)c1ccc(C(F)(F)F)c(CS(C)(=O)=O)c1SC [Example 3-163] | 100 | 100 | – | – | – | – | – | 100% | 100% | 100% |
| CCCn1nnnc1NC(=O)c1ccc(C(F)F)c(CSC)c1SC [Example 3-170] | 100 | 100 | – | – | – | – | – | 100% | 100% | 100% |
| CCCn1nnnc1NC(=O)c1ccc(C(F)F)c(C[S+](C)[O-])c1SC (centres unmarked) [Example 3-171] | 100 | 100 | – | – | – | – | – | 100% | 100% | 100% |
| CCCn1nnnc1NC(=O)c1ccc(C(F)F)c(CS(C)(=O)=O)c1SC [Example 3-172] | 90 | 100 | – | – | – | – | – | 100% | 100% | 100% |
| CCCn1nnnc1NC(=O)c1ccc(C(F)(F)F)c(CS(C)(=O)=O)c1Cl [Example 3-298] | 100 | 100 | – | – | – | – | – | 90% | 100% | 100% |
| CCCn1nnnc1NC(=O)c1ccc(C(F)(F)F)c(CS(=O)(=O)CC)c1Cl [Example 3-301] | 100 | 100 | 90% | 100% | 100% | – | – | – | – | – |
| C=CCSCc1c(C(F)(F)F)ccc(C(=O)Nc2nnnn2CCC)c1Cl [Example 3-308] | 80 | 100 | – | – | – | – | – | 100% | 100% | 100% |
| CCCn1nnnc1NC(=O)c1ccc(C(F)(F)F)c(CSCC(F)(F)F)c1Cl [Example 3-311] | 90 | 100 | 90% | 100% | 100% | – | – | – | – | – |
| CCCn1nnnc1NC(=O)c1ccc(C(F)(F)F)c(CSCC2CC2)c1Cl [Example 3-314] | – | – | – | – | – | 100% | 100% | 100% | 100% | 100% |
| CCCn1nnnc1NC(=O)c1ccc(C(F)F)c(CSCC)c1Cl [Example 3-323] | 90 | 100 | – | – | – | – | – | 100% | 100% | 100% |
| CCCn1nnnc1NC(=O)c1ccc(I)c(C[S+](C)[O-])c1Cl (centres unmarked) [Example 3-363] | 100 | 100 | 100% | 100% | 90% | – | – | – | – | – |
| CCCn1nnnc1NC(=O)c1ccc(C(F)(F)F)c(CS(C)(=O)=O)c1Br [Example 3-382] | 90 | 100 | 100% | 100% | 100% | – | – | – | – | – |
| CCCn1nnnc1NC(=O)c1ccc(C(F)(F)F)c(C[S+]([O-])CC)c1Br (centres unmarked) [Example 3-384] | 100 | 100 | – | – | – | – | – | 90% | 100% | 100% |
